The source of these data is publication PMC7391726, “Fatty acid mimetic PBI-4547 restores metabolic homeostasis via GPR84 in mice with non-alcoholic fatty liver disease” (Scientific Reports, 2020).

One experiment addresses T1, PPARγ (Homo sapiens, UniProt P37231).
T1 construct: PPARγ (S176–Y477); expressed in transfected cells; host or cells: HEK293
T1 sequence (P37231 176-477 isoform P37231-2): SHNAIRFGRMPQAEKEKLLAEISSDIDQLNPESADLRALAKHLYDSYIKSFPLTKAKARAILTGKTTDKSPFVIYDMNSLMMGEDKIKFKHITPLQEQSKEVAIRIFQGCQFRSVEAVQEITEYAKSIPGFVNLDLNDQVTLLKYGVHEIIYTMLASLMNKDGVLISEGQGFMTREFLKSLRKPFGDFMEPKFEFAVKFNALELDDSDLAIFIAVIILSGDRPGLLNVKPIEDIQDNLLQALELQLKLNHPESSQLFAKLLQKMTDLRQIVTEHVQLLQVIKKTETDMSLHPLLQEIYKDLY
Nature of the experiment: Cell-based GAL4 transactivation assay in HEK293 cells, PPARγ LBD. The text has this:
To determine the transcriptional activity of PBI-4547, a cell-based GAL4 transactivation assay in HEK293 cells transfected with either PPARα, PPARδ, or PPARγ LBD was used. […] However, PBI-4547 only partially activated PPARγ transcriptional activity, with a relative maximal efficacy of 38% of the control agonist rosiglitazone.
Generation of the Gαi2, Gαq, and GPR40/β-arrestin-2 BRET biosensors have been described previously. A plasmid encoding the human GPR120-L (long isoform) cDNA was obtained from R&D Systems. GPR120-S (short isoform) was generated by replacing the BglII-BsgI fragment from GPR120-L by a gBlock gene fragment (Integrated DNA Technologies, Coralville, IA) lacking the DNA sequence corresponding to the extra 16 amino acids found in the third intracellular loop of the long form. The GPR120-GFP10 construct was generated by inserting PCR-amplified GPR120-S (without its stop codon) in place of GPR40 in the GPR40-GFP10 plasmid. […]
HEK293 cells were co-transfected with pGL4.35[luc2P/9XGAL4UAS/Hygro] and GAL4-PPAR-Rluc plasmids, and after 24 h of incubation were treated with compounds for 24 h. Luciferase activity was determined with the Dual Glo luciferase assay (Promega). Firefly luminescence was normalized to the constitutively expressed Renilla luminescence, and results expressed as fold induction of vehicle control.

The subject of another experiment is HFD-fed Gpr84−/− mice. Nature of the experiment: High-fat diet (HFD) mouse model, Gpr84−/− mice. Type of experiment: in vivo. On the procedure: Based on PBI-4547’s pharmacological profile and binding activities, we next used Gpr84^−/− mice fed a HFD to investigate the role of GPR84 in mediating the protective effects of PBI-4547 on glucose and FA metabolism.
WT or Gpr84^−/− mice, as previously described, (aged 10–14 weeks at the beginning of the experiment) were either fed a standard diet (STD) or a high-fat diet (HFD) (Envigo #TD.06414) for 14 weeks. At this point, mice were administered either vehicle (water) or PBI-4547 (10 mg/kg) on a daily basis for 6 (WT study) or 8 (WT vs KO study) weeks by gastric gavage, and were sacrificed thereafter. Liver and WAT tissues were fixed in 10% formalin for histological analyses or flash frozen in liquid nitrogen for RT-PCR analyses. All animal studies were reviewed and approved by the animal care and use committee of the Institut National de la Recherche Scientifique – Armand-Frappier (Laval, QC, Canada) and the University of Ottawa’s Animal Care and Veterinary Services (Ottawa, ON, Canada). Protocols were approved and undertaken according to the Canadian Council on Animal Care guidelines.
Oral glucose tolerance tests (OGTT) were completed 6 weeks after beginning of the treatments. Briefly, mice were fasted for 4–6 h, given a bolus of glucose at […] BW orally, and blood glucose values measured at 0, 15, 30, 60, 120 min. In parallel, a blood sample was obtained at 0, 15, 60 and 120 min for insulin quantification by ELISA (EMD Millipore).
After fixation in formalin, iWAT (inguinal), eWAT (epididymal) and liver sections were embedded in paraffin. Thin section of […] were stained with Hematoxylin and Eosin or Sirius red for analyses. WAT collagen deposition and liver characteristics of NAFLD were quantified histologically by a pathologist (R.C.) in a double-blinded manner. Liver histology was performed on H&E stained slides. WAT collagen deposition was scored using Picro Sirius-Red stained slides. Immunofluorescence-detection of α-SMA in liver sections was performed. Briefly, samples were deparaffinized in a series of xylenes, rehydrated in graded alcohols followed by an antigen-unmasking step by microwaving in Tris-buffer (pH 8.2). Sections were blocked with 10% donkey serum (Vector labs), 1% bovine serum albumin (Sigma) in PBS + 1%Tween for 1 h at room temperature. Slides were incubated overnight at 4 °C with an anti-mouse smooth muscle α-Actin antibody (1:300; Santa Cruz, clone #1A4). Secondary detection was performed using a donkey anti-mouse Alexa Fluor 594 (1:500; Molecular Probes), incubated for 1 h at room temperature. Slides were dehydrated and mounted with fluorescent antifade media containing DAPI (Vector labs). Images were taken at 100X and 200X magnification and representative images are shown.
RNA was extracted and purified as previously described. Real-time quantitative PCR was performed on a CFX96 Touch Real-Time PCR Detection System (Bio-Rad) using TaqMan gene expression assays (Fisher Scientific). qPCR data were analyzed using the 2-^ΔΔCt method, using Gapdh and Hprt as endogenous control. RT-qPCR data were reported as Geometric means ± SEM.

Where [1] appears, read: WT vs KO study, HFD-fed Gpr84−/−.

Take `CCCCCc1cc(CCCCC)cc(CC(=O)[O-])c1.[Na+]` [PBI-4547, 2-[3,5-dipentylphenyl]acetate sodium salt]: the EC50 at PPARγ (HEK293, 24 h, read-out: EC50, PPARγ transcriptional activity) stood at 3.6 µM. Also, the Emax on PPARγ (HEK293, of the control agonist rosiglitazone, read-out: relative maximal efficacy, PPARγ transcriptional activity) was 38%. In the experiment on HFD-fed Gpr84−/− mice (HFD-fed GPR84−/− mice), the “immunodetectable α-SMA in liver” value is “further decreased”. In addition, in the experiment on HFD-fed Gpr84−/− mice (HFD-fed Gpr84−/− (KO) mice), the “impact on hepatic steatosis” value is recorded as “protective effect was lost”. Further, in the experiment on HFD-fed Gpr84−/− mice (HFD-fed Gpr84−/− mice, qRT-PCR), the “expression of hepatic genes previously found regulated by PBI-4547 in WT mice” value was “no longer modulated”. For the same compound, in the experiment on HFD-fed Gpr84−/− mice (setting [1]), the “WAT mean adipocyte diameters and area” value is “remained unchanged”; the “fasting blood glucose levels” value was “only in WT mice”; the serum adiponectin entry is reported as “upregulated”; the serum cholesterol levels result is on record as “remained unchanged”. Also, the serum triglyceride levels result in the experiment with HFD-fed Gpr84−/− mice (setting [1]) is on record as “only in WT mice”. Also, the OGTT entry with HFD-fed Gpr84−/− mice (WT vs KO study, HFD-fed Gpr84−/−, after 6 weeks) is reported as “only had a significant effect on OGTT in WT mice”. Also, in the experiment on HFD-fed Gpr84−/− mice (mice lacking the GPR84 receptor), the “modulatory effect on pro-inflammatory and pro-fibrotic markers in WAT” value was “absent”.

The EC50 is the concentration giving half of the maximal effect.
